Columns and labels:
p-388 leukemia cells [1] = test: Test Example 1: antitumour activity, intraperitoneal-intraperitoneal, p-388 leukemia in BDF1 mice; type: in vivo; conditions: i.p., one day and four days after i.p. inoculation, 30 days observation
Experimental: (Intraperitoneal-intraperitoneal) To BDF1 mice, p-388 leukemia cells were intraperitoneally inoculated in an amount of 1×10^6 cells/mouse. A test drug was intraperitoneally administered twice, i.e. one day and four days after the inoculation. […] The ratio (%) of median survival time of test and control animals was obtained with the number of survival days of mice of the control group to which a physiological saline was administered, being evaluated as 100. The comparative drugs were dispersions obtained by adding small amounts of surfactants (e.g. Tween-80) to the comparative compounds. The drugs of the present invention were those prepared in accordance with Formulation Example 4 given hereinafter. | Note: MST^1 Ratio of median survival time of test and control animals

p-388 leukemia cells [2] = test: Test Example 2: antitumour activity, intraperitoneal-oral, p-388 leukemia in BDF1 mice; type: in vivo; conditions: one day and four days after i.p. inoculation, 30 days observation
From the text: (intraperitoneal-oral) To BDF1 mice, p-388 leukemia cells were intraperitoneally inoculated in an amount of 1×10^6 cells/mouse. A test drug was orally administered twice i.e. one day and four days after the inoculation. […] The test drugs and comparative drugs were formulated in accordance with Formulation Example 4 given hereinafter. | Notes: MST^1 is as defined above.

[3] = Acute toxicity, oral administration; type: in vivo; conditions: mouse, in vivo; oral, ddY mice, Formulation Example 4
Experimental: (§1) To ddY mice (10 animals), a drug containing the Compound No. 1 or No. 2 of the present invention formulated in accordance with Formulation Example 4 was orally administered in an amount of the compound of 12.5 mg/kg, whereupon no mice died.

ddY mice = test: Acute toxicity, oral administration; type: in vivo; conditions: 12.5 mg/kg oral, ddY mice (10 animals), Formulation Example 4
Experimental: as §1

[4] = Acute toxicity, intraperitoneal administration; conditions: mouse, in vivo, ip, ddY mice, suspension with Tween-80
Experimental: as §1
On the other hand, a similar test was conducted by intraperitoneally administering a suspension obtained by adding a small amount of a surfactant (Tween-80) to the Compound No. 3 of the present invention, to the same mice, whereby the LD50 values were from 50 to 100 mg/kg.

O=C(NC(=O)c1ccccc1[N+](=O)[O-])Nc1ccc(Oc2ncc(Cl)cn2)c(C(F)(F)F)c1 [Compound No. 2, N-(2-nitrobenzoyl)-N'-[4-(5-chloro2-pyrimidinyloxy)-3-trifluoromethylphenyl]urea]
T/C (%) of MST (ratio of median survival time of test and control animals) (p-388 leukemia cells [1]; 3.125 mg/kg/day): 160%
T/C (%) of MST (ratio of median survival time of test and control animals) (p-388 leukemia cells [2]; 6.25 mg/kg/day): 167%
LD50 [3]: ≥ 12.5 mg/kg
mortality (ddY mice): no mice died

O=C(NC(=O)c1ccccc1[N+](=O)[O-])Nc1ccc(Oc2ncc(Br)cn2)c(C(F)(F)F)c1 [Compound No. 1, N-(N2-nitrobenzoyl)-N'-[4-(5-bromo-2-pyrimidinyloxy)-3-trifluoromethylphenyl]urea]
T/C (%) of MST (ratio of median survival time of test and control animals) (p-388 leukemia cells [1]; 3.125 mg/kg/day): 153%
T/C (%) of MST (ratio of median survival time of test and control animals) (p-388 leukemia cells [2]; 6.25 mg/kg/day): 186%
LD50 [3]: ≥ 12.5 mg/kg
mortality (ddY mice): no mice died

O=C(NC(=O)c1ccccc1[N+](=O)[O-])Nc1ccc(Oc2ncc(I)cn2)c(Cl)c1 [Comparative Compound No. 1, N-(2 nitrobenzoyl)-N'-[3-chloro-4-(5-iodo-2-pyrimidinyloxy)phenyl]urea]
T/C (%) of MST (ratio of median survival time of test and control animals) (p-388 leukemia cells [1]; 12.5 mg/kg/day): 171%
T/C (%) of MST (ratio of median survival time of test and control animals) (p-388 leukemia cells [1]; 25 mg/kg/day): 230%
T/C (%) of MST (ratio of median survival time of test and control animals) (p-388 leukemia cells [2]; 400 mg/kg/day): 116%
T/C (%) of MST (ratio of median survival time of test and control animals) (p-388 leukemia cells [2]; 800 mg/kg/day): 143%
T/C (%) of MST (ratio of median survival time of test and control animals) (p-388 leukemia cells [2]; 1600 mg/kg/day): 186%

O=C(NC(=O)c1ccccc1Br)Nc1ccc(Oc2ncc(I)cn2)c(Cl)c1 [Comparative Compound No. 4, N-(2-bromobenzoyl)-N'-[3-chloro-4-(5-iodo-2-pyrimidinyloxy)phenyl]urea]
T/C (%) of MST (ratio of median survival time of test and control animals) (p-388 leukemia cells [1]; 100 mg/kg/day): 165%

O=C(NC(=O)c1ccccc1[N+](=O)[O-])Nc1ccc(Oc2ncc(I)cn2)c(C(F)(F)F)c1 [Compound No. 3, N-(2-nitrobenzoyl)-N'-[4-(5-iodo-2-pyrimidinyloxy)-3-trifluoromethylphenyl]urea]
LD50 [4]: 50 to 100 mg/kg

O=C(NC(=O)c1ccccc1Cl)Nc1ccc(Oc2ncc(I)cn2)c(Cl)c1 [Comparative Compound No. 3, N-(2-chlorobenzoyl)-N'-[3-chloro-4-(5-iodo-2-pyrimidinyloxy)phenyl]urea]
T/C (%) of MST (ratio of median survival time of test and control animals) (p-388 leukemia cells [1]; 100 mg/kg/day): 236.8%

O=C(NC(=O)c1ccccc1Cl)Nc1ccc(Oc2ncc(Cl)cn2)c(Cl)c1 [Comparative Compound No. 2, N-(2-chlorobenzoyl)-N'-[3-chloro-4-(5-chloro-2-pyrimidinyloxy)phenyl]urea]
T/C (%) of MST (ratio of median survival time of test and control animals) (p-388 leukemia cells [1]; 200 mg/kg/day): 183.9%

Source: patent US4677110A, “N-benzoyl-N'-pyrimidinyloxyphenyl urea compounds, and antitumorous compositions containing them” (Ishihara Sangyo Kaisha Ltd., priority 1984, dated 1987)
